Assay results as given in paper PMC7587333, “Synthesis, Molecular Docking, and In Vitro Boron Neutron Capture Therapy Assay of Carboranyl Sinomenine” (Molecules, 2020).
Read-outs that look alike come from different tables or passages of the source.

Tests used:
[1] = tested on: rat C6 glioma cells; parameters: method as in PMID 31260876; conditions: cited from earlier work
[2] = tested on: rat FLS cells; parameters: method as in PMID 15980490; conditions: cited from earlier work
[3] = tested on: malignant cells; conditions: background statement, no reference given; cited from earlier work
[4] = tested on: rat C6 gliosarcoma cells; assay: In vitro survival study (BNCT, thermal neutron irradiation, colony formation), C6 cells; format: cell-based; conditions: C6 gliosarcoma tumor cells
Excerpt: (§1) The preliminary in vitro killing effects of compound 3 were examined by using rat C6 gliosarcoma tumor cells and fibroblast-like synoviocytes (FLS) cells, respectively. The in vitro survival study was completed with the thermal neutron fluence ranging from 0 to 4.2 × 10^12 n/cm^2. The γ-ray dose presented in the experiment was monitored by thermoluminescent dosimeters (TLDs) attached to the tubes and ranged from 0 to 5 Sv. […] A low surviving fraction of around 0.01 was obtained by compound 3 after irradiation for 50 min.
(§2) The in vitro assessments were carried out according to methods reported in the literature. […] The inability of cells to adhere to Teflon allows precise quantitative manipulation of cells without trypsinization. […] The thermal neutron fluence was determined by averaging the activity of two gold films symmetrically attached to the Teflon tube surface along the thermal neutron axis. […] The neutron absorbed dose (Gy) was calculated using the flux-to-dose conversion factor [39, 40]. […] The γ-ray dose was monitored by thermoluminescent dosimeters (TLDs) (Kyoto, Japan) attached to the tubes, and it ranged from 0 to 5 Sv. […] The colonies were fixed and stained with a 10% formaldehyde/1% toluidine blue solution and then counted microscopically.
(§3) The in vitro BNCS was carried out in triplicate. […] The significance of the differences in survival rates was assessed by Student’s t-test. […]

[5] = tested on: rat fibroblast-like synoviocytes (FLS) cells; assay: In vitro survival study (BNCS, thermal neutron irradiation, colony formation), FLS cells; format: cell-based; conditions: same operating conditions as L-BPA
Excerpt: as §1, §2, §3

[6] = tested on: rat FLS cells; assay: Cytotoxicity study, standard MTT assay; format: cell-based; conditions: 3 days of continuous exposure, no irradiation, read-out: IC50 (growth inhibition, cytotoxicity)
Description: The IC50 (moles/liter, M), the concentration that inhibited the growth of rat FLS cells by 50% after 3 days of continuous exposure, was determined using the standard MTT assay. Suspensions of 4.9 × 10^5 of rat fibroblast-like synoviocytes cells /200 μL MEM containing 20% FCS were incubated for 3 days using 96-well culture plates with various concentrations of the samples in dimethyl sulfoxide (DMSO). The damaged cells were detected at 490 nm optical absorbance by Aqueous One Solution Cell Proliferation Assay.
Figure S-4. 1H NMR of 3 in DMSO-d6.
2. Cytotoxicity study. For IC50 analysis, the standard MTT method was used to analyze IC50 of compound 3. The IC50 determinations were performed in the presence of serial dilutions of inhibitor (1000 μM to 3.906 µM, 1% DMSO, final) in complete reaction buffer and incubated for […].
Figure S-5. IC50 dose responsive curve of 3 for rat FLS cells. […]

[7] = tested on: rat C6 glioma cells; assay: Uptake of boron by rat C6 glioma cells (ICP-AES); format: cell-based; conditions: 24 h culture with boron agent
Excerpt: (§4) The rat C6 glioma cells and fibroblast-like synoviocytes (FLS) cells were used to conduct the boron uptake of 3. The boron uptakes of clinically used L-BPA and BSH were also listed for comparation. The results reveal that 3 was able to permeate both C6 glioma cells and FLS cells. […] The higher membrane permeability provides enhanced boron concentration in the cell lines. […] Nevertheless, the detailed mechanism of 3 crossing cell membrane warrants further investigation.
(§5) According to literature, 3.7 × 10^8 rat FLS cells or 2.6 × 10^7 rat C6 glioma cells were seeded and cultured at […] (37 °C, 5% CO2) for 24 hrs. This culture fluid was removed therefrom by suction, culture fluids containing 1.5 mM of boron agent 3 with the boron concentrations of 3.0 mM, 1.5 mM, 18.0 mM, and 1.5 mM, respectively, were added and continued culturing for 24 h under the same conditions. These culture fluids were removed by suction and the cells were washed three times with PBS and treated with trypsin to recover the cells. The number of cells recovered was counted, and HNO3 (2N, 1.5 mL) was added and the resulting mixture was heated at 80 °C for 12 h. After filtering using a membrane filter, the boron concentration was determined by ICP-AES (Singapore).

[8] = tested on: rat FLS cells; assay: Uptake of boron by rat fibroblast-like synoviocytes cells (ICP-AES); format: cell-based; conditions: 24 h culture with boron agent
Excerpt: as §4, §5

[9] = Solubility in organic solvents; format: physicochemical; conditions: organic solvents such as DMF, THF and DMSO
Excerpt: Carboranyl sinomenine product was synthesized by a straightforward method as shown in Scheme 1. In this process, sinomenine anion was generated in situ from the reaction of sinomenine (1) with the excess quantity of potassium carbonate in N,N-dimethyl formide (DMF) solvent at room temperature under argon atmosphere. The resulting sinomenine anion reacted with 4-(methyl-ortho-carboranyl)-n-butyl iodide (2), prepared according to the literature method, to produce the carboranyl sinomenine (3) as a colorless solid in 54.3% yield after recrystallization from tetrahydrofuran (THF) solvent.

For `N[C@@H](Cc1ccc(B(O)O)cc1)C(=O)O` [L-BPA, 4-borono-L-phenylalanine], which “Boron amounts delivered to the cells” value [1] is on record?
The value was 0.67 [21] μg/10^7 cells.

And the “Boron amounts delivered to the cells” value [2]?
Its value is 0.74 [31] μg/10^7 cells.

And the “Concentration in malignant cells relative to blood and other healthy cells” value [3]?
The value was 2–4 times.

Which Surviving fraction ([4]; after thermal neutron irradiation for 50 min) does the source give for “methylcarboranyl-n-butyl sinomenine [Compound 3]” here?
The Surviving fraction was “around 0.01”.

What about the “Killing effect improved compared with L-BPA” value ([4]; thermal neutron irradiation, same operating conditions as L-BPA) of the same compound?
The value was “approximately nine times”.

And the “Killing effects enhanced compared with L-BPA” value [5]?
The value was “approximately three times”.

What about the IC50 [6] of the same compound?
The IC50 was 310.4 ± 0.3 µM.

And the “Boron amounts delivered to the cells” value [7]?
Its value is 4.25 μg/10^7 cells.

What about the “Boron amounts delivered to the cells” value [8] of the same compound?
The value was 3.04 μg/10^7 cells.

And the Solubility [9]?
The Solubility was “soluble in various organic solvents”.

With sodium borocaptate [BSH] as the compound, how does the “Boron amounts delivered to the cells” value [1] read?
Its value is 2.14 [21] μg/10^7 cells.

What about the “Boron amounts delivered to the cells” value [2] of the same compound?
Its value is 1.82 [31] μg/10^7 cells.
